Assay results: article PMC7026885, “Macrofilaricidal Benzimidazole–Benzoxaborole Hybrids as an Approach to the Treatment of River Blindness: Part 1. Amide Linked Analogs” (ACS Infectious Diseases, 2019)
Read-outs that look alike come from different tables or passages of the source.

Tests used:
B. malayi/pahangi worms = experiment: ex vivo B. malayi/pahangi assay; assay type: cell-based; details: short (<7 days) exposure of worms
Brugia malayi = experiment: Adult Brugia malayi transplantation in vivo model in gerbils; details: for adult worm reduction / animals with no worms: B. malayi, necropsy day 42, QD
Method: (§1) We characterized the in vitro ADME properties of 8a in preparation for evaluation of this compound in our primary in vivo model in gerbils. […] We were pleased to find that 8a was able to kill 100% of both male and female worms in the gerbil peritoneum when dosed subcutaneously at 100 mg/kg/day for 14 days as a suspension in a nonsolubilizing HEC/Tween vehicle. […] The subsequent assessment of the pharmacokinetics of 8a from these two dosing paradigms provided an interesting observation that we believe to be important in understanding the PK–PD requirements for achieving efficacy in this animal model. […] We had made the same observation in a positive control group using flubendazole at a subcutaneous dose of 10 mg/kg/day for 5 days in the nonsolubilizing HEC/Tween vehicle, namely, that plasma levels of flubendazole were maintained above the in vitro IC50 (4 nM) for over 42 days, consistent with data reported in the literature.[43] […] We next examined 8a in two additional in vivo models, the first where L3 B. pahangi larvae were injected into the peritoneum of gerbils and allowed to develop into adult worms[45] and a second where gerbils were naturally infected by the filarial nematode Litomosoides sigmodontis.[46],[47] In both of these models, 8a was administered subcutaneously at 100 mg/kg for 14 days or orally at 100 mg/kg for 28 days as a suspension. […] Additionally, when plasma obtained from treated animals at necropsy was analyzed for 8a, we observed an outcome similar to that observed in the adult implantation model, e.g., that measurable levels were present at this time point in the subcutaneous-dosed groups but not in the orally dosed groups, weeks after administration of the drug. In a final L. sigmodontis experiment with 8a, we dosed the compound subcutaneously at 300 mg/kg for 7 days as a suspension.
(§2) Plates were incubated at 37 °C in a 5% CO2 incubator for 6 days, then molting was assessed visually using an inverted microscope. Molting was determined in each well by counting the presence of fourth stage larvae (L4s) and empty casts of L3s.
(§3) The percent inhibition of molting was calculated based on the number of treated larvae that were able to molt in comparison to the number of control larvae that had successfully molted. IC50 values were calculated using GraphPad Prism v6.0
(§4) (http://www.graphpad.com). See Bullman et al., PLoS Negl. Trop.
(§5) Adult Brugia malayi transplantation in vivo model procedure.
(§6) Gerbils (Meriones unguiculatus) were infected by transplantation of 10 male and 10 female adult Brugia malayi into the peritoneal cavity. Gerbils were acclimated for 7 days prior to treatment. Animals were dosed based on their body weight prior to each dosing. Animals were administered their doses at the same time each day and receive standard rodent laboratory diet and water ad libitum. Gerbils were humanely euthanized at the conclusion of each study. Peritoneal counts of male and female adult B. malayi and visual condition of the peritoneum were recorded.
(§7) Brugia pahangi L3 injection in vivo model procedure 8.
(§8) Male gerbils (Meriones unguiculatus) approximately 6 weeks of age (50-60 g) were purchased from Charles Rivers (USA, Kingston K62 Gerbils) and infected by intraperitoneal injection with 200 Brugia pahangi third-stage larvae (L3) per animal
(§9) (Filariatech, Inc., Athens, GA). Gerbils were housed with no more than 5 animals per cage and maintained 9 months prior to treatment. All gerbils were dosed in accordance with their body weight determined prior to each dosing. Animals were […]

[1] = tested on: Onchocerca volvulus L3 larvae; experiment: Onchocerca volvulus L3 larval molting assay; assay type: cell-based; details: L3 molting assay, Table 1, read-out: O. volvulus IC50
Method: (§10) The first three analogs from the benzimidazole 5-carboxylic acid, namely 7a (from 6-aminobenzoxaborole), 8a (from 6-aminomethyl-3,3-dimethylbenzoxaborole), and 8b (from 3-aminomethylbenzoxaborole), were prepared and tested in an Onchocerca volvulus L3 larval molting assay[34],[35] and a mammalian G2/M arrest assay[36] to evaluate antifilarial activity and selectivity, respectively (Table 1). O. volvulus is the causative agent of river blindness, and the L3 molting assay is the only widely available and reproducible assay of this filariid, the target of novel macrofilaricidal drugs.[34],[35] Other animal models (e.g., Brugia in gerbils) recapitulate aspects of lymphatic filariasis and are also used as surrogate screens for O. volvulus infections. Of the three compounds tested, 8a emerged as the most attractive compound on the basis of potency and selectivity.
as §2, §3, §4, §5, §6, §7, §8, §9

[2] = Metabolic stability in gerbil microsomes; assay type: in vitro ADME
Method: We characterized the in vitro ADME properties of 8a in preparation for evaluation of this compound in our primary in vivo model in gerbils. […] We were pleased to find that 8a was able to kill 100% of both male and female worms in the gerbil peritoneum when dosed subcutaneously at 100 mg/kg/day for 14 days as a suspension in a nonsolubilizing HEC/Tween vehicle. […] The subsequent assessment of the pharmacokinetics of 8a from these two dosing paradigms provided an interesting observation that we believe to be important in understanding the PK–PD requirements for achieving efficacy in this animal model. […] We had made the same observation in a positive control group using flubendazole at a subcutaneous dose of 10 mg/kg/day for 5 days in the nonsolubilizing HEC/Tween vehicle, namely, that plasma levels of flubendazole were maintained above the in vitro IC50 (4 nM) for over 42 days, consistent with data reported in the literature.[43] […] Additionally, when plasma obtained from treated animals at necropsy was analyzed for 8a, we observed an outcome similar to that observed in the adult implantation model, e.g., that measurable levels were present at this time point in the subcutaneous-dosed groups but not in the orally dosed groups, weeks after administration of the drug. […]

[3] = tested on: G2/M arrest (functional indicator of interaction with mammalian tubulin); experiment: mammalian G2/M arrest assay; assay type: cell-based; details: Table 1; read-out: G2/M arrest IC50
Method: as §10
Similarly, changing the point of attachment on the benzoxaborole core from 6- to 5- to afford 8d was also accompanied by increased potency in both the O. volvulus and G2/M arrest assays.

[4] = Plasma drug concentrations in treated infected gerbils; assay type: in vivo; details: for concentration at 42 day: day 42; for concentration at 28 day: day 28
Method: as §1

MDR1-MDCK monolayer = MDR1-MDCK monolayer permeability assay; assay type: in vitro ADME; details: dog
Method: as §1

micronucleus [5] = tested on: micronucleus; parameters: method as in PMID 26443851; details: in vitro; cited from earlier work
rat whole embryo culture = tested on: rat whole embryo culture; parameters: method as in PMID 23287076, PMID 24994687; details: cited from earlier work
micronucleus [6] = tested on: micronucleus; parameters: method as in PMID 26443851; details: in vivo; cited from earlier work
pregnant female rats = tested on: pregnant female rats; parameters: method as in PMID 23287076, PMID 24994687; details: dosed to pregnant female rats; cited from earlier work
[7] = 100 mg/kg × 14 days, SC (suspension)
[8] = 100 mg/kg × 28 days, PO (suspension)
[9] = 150 mg/kg × 14 days, SC (solution)

Compound: COC(=O)Nc1nc2cc(C(=O)NCc3ccc4c(c3)B(O)OC4(C)C)ccc2[nH]1 [8a]
- killing of worms after short exposure (B. malayi/pahangi worms): not effective in killing the worms
- adult worm reduction (Brugia malayi; [7]): 100%
- animals with no worms (Brugia malayi; [7]): 87.5%
- adult worm reduction (Brugia malayi; [8]): 12.5%
- animals with no worms (Brugia malayi; [8]): 0%
- adult worm reduction (Brugia malayi; [9]): 83.3%
- animals with no worms (Brugia malayi; [9]): 50%
- in vivo efficacy (Brugia malayi; SC 150 mg/kg/day as a solution in DMSO/water vehicle): substantially reduced
- kill of both male and female worms in the gerbil peritoneum (Brugia malayi; implanted adult B. malayi or B. pahangi, SC 100 mg/kg/day for 14 days, suspension in HEC/Tween vehicle): 100%
- in vivo efficacy by the oral route (Brugia malayi; oral, 100 mg/kg/day for 28 days): not efficacious
- IC50 [1]: 300 nM
- microsomal CLint [2]: < 4 µL/min/mg
- IC50 [3]: 13000 nM
- drug concentration at necropsy ([4]; B. malayi model, necropsy day 42, 100 mg/kg × 28 days, QD, PO (suspension)): <LOQ
- drug concentration at necropsy ([4]; B. pahangi model, necropsy day 63, 100 mg/kg × 28 days, QD, PO (suspension)): <LOQ
- concentration at 24 h after last dose ([4]; gerbil, plasma, po, 100 mg/kg, B. malayi model, 100 mg/kg × 28 days, QD, PO (suspension), read-out: drug concentration 24 h after last dose): 128 nM
- concentration at 24 h after last dose ([4]; gerbil, plasma, po, 100 mg/kg, B. pahangi model, 100 mg/kg × 28 days, QD, PO (suspension), read-out: drug concentration 24 h after last dose): 130 nM
- concentration at 42 day ([4]; gerbil, plasma, po, 100 mg/kg, L. sigmodontis model, 100 mg/kg × 28 days, QD, PO (suspension), read-out: drug concentration interim): 6 nM
- concentration at 63 day (necropsy) ([4]; gerbil, plasma, po, 100 mg/kg, L. sigmodontis model, necropsy day 63, 100 mg/kg × 28 days, QD, PO (suspension)): 3 nM
- concentration at 24 h after last dose ([4]; gerbil, plasma, po, 100 mg/kg, L. sigmodontis model, 100 mg/kg × 28 days, QD, PO (suspension), read-out: drug concentration 24 h after last dose): 210 nM
- concentration at 28 day ([4]; gerbil, plasma, sc, 100 mg/kg, B. malayi model, 100 mg/kg × 14 days, QD, SC (suspension), read-out: drug concentration interim): 5360 nM
- concentration at 42 day (necropsy) ([4]; gerbil, plasma, sc, 100 mg/kg, B. malayi model, necropsy day 42, 100 mg/kg × 14 days, QD, SC (suspension), read-out: drug concentration at necropsy): 3380 nM
- concentration at 24 h after last dose ([4]; gerbil, plasma, sc, 100 mg/kg, B. malayi model, 100 mg/kg × 14 days, QD, SC (suspension), read-out: drug concentration 24 h after last dose): 4100 nM
- concentration at 63 day (necropsy) ([4]; gerbil, plasma, sc, 100 mg/kg, B. pahangi model, necropsy day 63, 100 mg/kg × 14 days, QD, SC (suspension)): 1150 nM
- concentration at 24 h after last dose ([4]; gerbil, plasma, sc, 100 mg/kg, B. pahangi model, 100 mg/kg × 14 days, QD, SC (suspension), read-out: drug concentration 24 h after last dose): 5870 nM
- concentration at 63 day (necropsy) ([4]; gerbil, plasma, sc, 100 mg/kg, L. sigmodontis model, necropsy day 63, 100 mg/kg × 14 days, QD, SC (suspension)): 69 nM
- concentration at 24 h after last dose ([4]; gerbil, plasma, sc, 100 mg/kg, L. sigmodontis model, 100 mg/kg × 14 days, QD, SC (suspension), read-out: drug concentration 24 h after last dose): 9300 nM
- concentration at 28 day ([4]; gerbil, plasma, sc, 150 mg/kg, B. malayi model, 150 mg/kg × 14 days, QD, SC (solution), read-out: drug concentration interim): 70 nM
- concentration at 42 day (necropsy) ([4]; gerbil, plasma, sc, 150 mg/kg, B. malayi model, necropsy day 42, 150 mg/kg × 14 days, QD, SC (solution), read-out: drug concentration at necropsy): 10 nM
- concentration at 24 h after last dose ([4]; gerbil, plasma, sc, 150 mg/kg, B. malayi model, 150 mg/kg × 14 days, QD, SC (solution), read-out: drug concentration 24 h after last dose): 2470 nM
- concentration at 21 day ([4]; gerbil, plasma, sc, 300 mg/kg, L. sigmodontis model, day 21, 300 mg/kg × 7 days, QD, SC (suspension), read-out: drug concentration interim): 10600 nM
- concentration at 42 day ([4]; gerbil, plasma, sc, 300 mg/kg, L. sigmodontis model, 300 mg/kg × 7 days, QD, SC (suspension), read-out: drug concentration interim): 4640 nM
- concentration at 63 day (necropsy) ([4]; gerbil, plasma, sc, 300 mg/kg, L. sigmodontis model, necropsy day 63, 300 mg/kg × 7 days, QD, SC (suspension)): 480 nM
- concentration at 24 h after last dose ([4]; gerbil, plasma, sc, 300 mg/kg, L. sigmodontis model, 300 mg/kg × 7 days, QD, SC (suspension), read-out: drug concentration 24 h after last dose): 7850 nM
- Papp with Pgp efflux inhibitor GF-120918 (MDR1-MDCK monolayer): 2.7 × 10^–6 cm/s

Compound: COC(=O)Nc1nc2cc(C(=O)c3ccc(F)cc3)ccc2[nH]1 [compound 1, Flubendazole, reference compound]
- killing of worms after short exposure (B. malayi/pahangi worms): not effective in killing the worms
- adult worm reduction (Brugia malayi; 10 mg/kg × 5 days, SC): 100%/100%
- animals with no worms (Brugia malayi; 10 mg/kg × 5 days, SC): 100%/100%
- IC50 [1]: 4 nM
- micronucleus test result (micronucleus [5]): aneugen
- embryotoxicity (rat whole embryo culture): potentially embryotoxic
- IC50 [3]: 670 nM
- micronucleus test result (micronucleus [6]): aneugen
- concentration at 24 h after last dose ([4]; gerbil, in vivo, sc, 10 mg/kg, drug concentration 24 h after last dose): 178 nM
- concentration at 42 day (necropsy) ([4]; gerbil, in vivo, sc, 10 mg/kg, drug concentration at necropsy): 43 nM
- time plasma levels maintained above in vitro IC50 (4 nM) ([4]; gerbil, in vivo, sc, 10 mg/kg/day): over 42 days
- embryotoxicity (pregnant female rats): potentially embryotoxic
